Measured values published in paper PMC11001712, “Epiberberine: a potential rumen microbial urease inhibitor to reduce ammonia release screened by targeting UreG” (Applied Microbiology and Biotechnology, 2024).
Where two headings read alike, the source gives them in different places.

Experiments:
UreG [1] = assay: UreG GTPase activity (Malachite Green Phosphate Assay); type: biochemical, rumen microorganisms of dairy cows; conditions: for IC50: alkaloid 0, 6.25, 12.5, 25, 50 and 100 μM, triplicate, read-out: IC50 against UreG GTPase activity
[2] = test system: urease of ruminal microbial crude protein; assay: Urease activity of ruminal microbial crude protein (phenol/hypochlorite); type: biochemical, rumen microorganisms; conditions: Fig. 5A
Description: Ruminal microbial crude protein was collected by ultrasonication and centrifugation following a previously established method (Zhang et al. [2020b]). The urease activity of ruminal microbial crude protein was determined based on the amount of ammonia decomposed by urea through a modified phenol/hypochlorite reaction method (Krallmann-Wenzel [1985]), in which the urease activity without alkaloid and urea was set at 0, and the urease activity without alkaloid was set at 100%. The inhibition rate of alkaloid to inhibit urease activity was calculated by the following formula: Inhibitionrate%=1-A-B/C-D×100 where A represents the absorbance value of urease activity with alkaloid, B represents the absorbance value of urease activity with alkaloid but without urea, C represents the absorbance value of urease activity without alkaloid, and D represents the absorbance value of urease activity without alkaloid and urea. Each measurement was performed in triplicate.

urease = test system: urease; design: method as in Tan et al. [2017]; conditions: ref Tan et al. [2017]; cited from earlier work
[3] = test system: urease of Helicobacter pylori; design: method as in Li et al. [2016]; conditions: ref Li et al. [2016]; cited from earlier work
[4] = cited from earlier work
(UniProt A0A6M3RDS9) = assay: UreG GTPase activity (Malachite Green Phosphate Assay); type: biochemical, rumen microorganisms of dairy cows; conditions: alkaloid 0, 6.25, 12.5, 25, 50 and 100 μM; triplicate; read-out: IC50 against UreG GTPase activity
UreG [5] = assay: Isothermal titration calorimetry of nickel binding to UreG in presence of alkaloid; design: species or system rumen microorganisms of dairy cows; conditions: for Effect on KD value between nickel and UreG / Effect on N value (nickel: UreG): 27 μM UreG, 1500 μM NiSO4, 238 μM alkaloid
Description: The inhibition mechanism of UreG by alkaloid was explored using ITC and CD spectroscopy, to reveal the effects of alkaloid on the combination of nickel towards UreG and the secondary structure of UreG. ITC measurements were carried out with an AutoITC200 microcalorimeter (GE, MA, USA) as described previously (Zhang et al. [2020a]). Briefly, 27 µM UreG was titrated with 1500 µM NiSO4 in the present of 238 µM alkaloid. The titration curve was fitted with the one-site binding model, and the final data was analyzed by ITC Analysis Module in the software of Origin 7.0 (OriginLab, MA, USA).

UreG [6] = conditions: from trend of Km and Vmax with alkaloid concentration
Description: The kinetics assay of UreG by alkaloid was carried out by Michaelis–Menten equation, and the values of Michaelis–Menten constants (Km and Vmax) were calculated from the Lineweaver–Burk plots through the software of GraphPad Prism. The inhibition with various concentrations of alkaloids (0, 15.6, 62.5, and 250 µM) was measured at different concentrations of GTP substrate (0, 12.5, 25, 50, 100, and 200 µM).

UreG [7] = assay: Circular dichroism spectroscopy of UreG secondary structure; design: species or system rumen microorganisms of dairy cows; conditions: 233 μg/mL UreG, 88 μM alkaloid
Description: The CD spectra of UreG were recorded using Chirascan Plus spectrometer (Applied Photophysics Ltd., Surrey, UK) equipped with a 1-mm quartz cell, at measurement range between 190 and 260 nm, with 1 nm data pitch and bandwidth. To reduce interference from the background solution, 233 µg/mL UreG and 88 µM alkaloid were prepared using distilled water. The final CD spectrum of UreG was obtained by subtracting the background spectrum (distilled water or alkaloid) from the sample spectrum. The secondary structure proportions (α-helix, β-sheet, β-turn, and random coil) in UreG were calculated using CDNN (v.2.1) software (Applied Photophysics Ltd., Leatherhead, UK).

[8] = test system: rumen microbial urease (rumen fluid); assay: Ruminal microbial fermentation in vitro (NH3 and urea); type: cell-based, rumen microorganisms; conditions: 15 mM urea; for Decrease in NH3 concentration: 12 h of incubation
Description: The study of ruminal microbial fermentation consisted of a control group and 3 epiberberine treatment groups, each containing 70 mL fresh rumen fluid and 140 mL anaerobic medium (Zhang et al. [2020c]). Epiberberine treatment groups with the final concentration of 2, 20, and 200 μM were pre-incubated in an anaerobic chamber at 39 °C for 15 min. Immediately after inoculation, 10 mL aliquots of mixed solution were transferred into Hungate tubes, urea with a final concentration of 15 mM was added into each tube. Three tubes were immediately collected from each group as 0 h samples; the others were sealed with rubber stoppers and cultured in an incubator. Samples were collected at 1, 2, 4, 8, and 12 h of incubation, with 3 tubes in each group. The collected tubes were immediately placed on ice to slow down fermentation; 400 μL of sample solution was mixed with 800 μL metaphosphoric acid solution (25% w/v) and centrifuged at 12,000 × g for 5 min. The supernatant was collected for the detection of NH3 and urea. NH3 content was measured by a modified phenol/hypochlorite reaction method. Urea concentration was determined using the diacetyl monoxime method kit following the manufacturer’s instructions (Jiancheng Bioengineering, Nanjing, China).

[9] = acute toxicity; ref Yi et al. [2013]; cited from earlier work
[10] = rat, in vivo, po; cited from earlier work
Helicobacter pylori = test system: Helicobacter pylori; design: method as in Li et al. [2018]; conditions: antibacterial study and urease activity in vivo; ref Li et al. [2018]; cited from earlier work

Sequence of (UniProt A0A6M3RDS9) (A0A6M3RDS9 1-203): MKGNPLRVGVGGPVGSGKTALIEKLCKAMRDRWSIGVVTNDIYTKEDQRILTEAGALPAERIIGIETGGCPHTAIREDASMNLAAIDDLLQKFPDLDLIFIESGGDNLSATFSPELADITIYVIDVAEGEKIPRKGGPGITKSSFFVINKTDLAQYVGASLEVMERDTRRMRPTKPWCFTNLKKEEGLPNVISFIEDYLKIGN

For `CC(=O)NO` [AHA, acetohydroxamic acid, reference compound], the “Inhibition rate of UreG GTPase activity” value (UreG [1]; Fig. 1A screening) was “little effect” and the “Inhibition rate of urease activity against ruminal microbial crude protein” value [2] was 40%.
With `COc1cc2c(cc1O)CC[n+]1cc3c(OC)c(OC)ccc3cc1-2` [Jatrorrizine chloride] the IC50 (UreG [1]) was 60.1 µM.
In the case of `c1c2c(cc3c1OCO3)-c1cc3ccc4c(c3c[n+]1CC2)OCO4` [Coptisine chloride], the IC50 (UreG [1]) is reported as 86.6 µM and the “Inhibition rate of UreG GTPase activity relative to coptisine” value (UreG [1]; ratio of inhibition rates) is reported as 2.5 times.
In the case of `COc1ccc2cc3[n+](cc2c1OC)CCc1cc2c(cc1-3)OCO2` [berberine], the “Inhibitory potential against urease based on IC50 (rank among 5 alkaloids)” value (urease) is listed as “weakest one among the 5 alkaloids”, the “Inhibitory activity against urease of Helicobacter pylori” value [3] is listed as “little inhibitory activity” and the Oral bioavailability ([4]; rats, ref Chen et al. [2017]) is listed as less than 1%.
In the case of `COc1cc2c(cc1OC)-c1cc3ccc(OC)c(OC)c3c[n+]1CC2` [Palmatine chloride], the IC50 ((UniProt A0A6M3RDS9)) is reported as 94.8 µM.
In the case of `COc1ccc2cc3[n+](cc2c1OC)CCc1cc2c(cc1-3)OCO2` [berberine chloride], the “Effect on KD value between nickel and UreG” value (UreG [5]) is reported as “slightly altered”, the “Effect on N value (nickel: UreG)” value (UreG [5]) is reported as “slightly altered” and the IC50 ((UniProt A0A6M3RDS9)) is reported as 43.2 µM. The “Type of inhibition of UreG” value (UreG [6]) was “mixed-type inhibitor” and the “Secondary structural content changes of UreG” value (UreG [7]) was “slight changes”.
For `COc1cc2c(cc1OC)-c1cc3ccc4c(c3c[n+]1CC2)OCO4` [epiberberine], the “Urea remaining during fermentation” value ([8]; 2 μM, after 8 h of incubation) was “completely decomposed”, the “Decrease in NH3 concentration” value ([8]; 20 μM) was 13.1% and the “Decrease in NH3 concentration” value ([8]; 200 μM) was 15.6%. The “Effect on KD value between nickel and UreG” value (UreG [5]) was “increased”, the “Effect on N value (nickel: UreG)” value (UreG [5]) was “decreased” and the “Weaker binding of nickel and UreG compared to that of berberine chloride” value (UreG [5]; 238 μM alkaloid) was 10.8 fold. The Median lethal dose [9] was 1360.0 mg/kg, the “Detection in urine, feces and bile” value [10] was “not detected” and the IC50 ((UniProt A0A6M3RDS9)) was 56.9 µM. The “Type of inhibition of UreG” value (UreG [6]) was “uncompetitive inhibition type”, the “Decrease in the α-helix content of UreG” value (UreG [7]) was ~ 56% and the “Increasement in the β-sheet content of UreG” value (UreG [7]) was ~ 105%. For the same molecule, the “Inhibitory potential against urease based on IC50 (rank among 5 alkaloids)” value (urease) was “lowest IC50 value”, the “Inhibition rate of urease activity against ruminal microbial crude protein” value [2] was “significantly higher than that of berberine chloride and AHA” and the Oral bioavailability ([4]; rat, in vivo, po) was 14.5%.
In the case of `COc1cc2c(cc1OC)-c1cc3ccc(OC)c(OC)c3c[n+]1CC2` [palmatine], the Median lethal dose [9] is listed as 1533.7 mg/kg.
For `c1c2c(cc3c1OCO3)-c1cc3ccc4c(c3c[n+]1CC2)OCO4` [coptisine], the “Inhibitory effect on Helicobacter pylori among the 5 major protoberberine alkaloids” value (Helicobacter pylori) is listed as “strongest inhibitory effect”.
